Source: patent US12617756B2 (ABIVAX, priority 2019, dated 2026)

System: RSV A2
Assay: Screening for RSV inhibition using Viral ToxGlo assay (cytopathic effect inhibition in HEp-2 cells)
Format: cell-based, Respiratory Syncytial Virus (RSV)
Conditions: RSV A2 in HEp-2 cells, MOI 0.5, 72h p.i., cytopathic effect inhibition relative to virus control, Viral ToxGlo luminescence
In short: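 HEp-2 cells in 2% FBS medium infected with RSV A2 right after compound addition (max 1% DMSO), uninfected wells used for cytotoxicity. After 72 h p.i. at 37 °C/5% CO2, cell viability read by Viral ToxGlo luminescence as measure of cytopathic effect.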

[1] = human respiratory syncytial virus

| SMILES | EC50 [1] [nM] | EC50 [nM] |
| --- | --- | --- |
| CC1(NC(=O)c2cccc(Nc3c(F)cc(C(=O)N=C4NCCN4)cc3C3CCCO3)c2Cl)CC1 (stereo not drawn) [Compound 135, 4-({2-chloro-3-[(1-methylcyclopropyl)carbamoyl]phenyl}amino)-3-fluoro-N-[imidazolidin-2-ylidene]-5-(oxolan-2-yl)benzamide] | 28.7 |  |
| CC1(NC(=O)c2ccnc(Nc3c(F)cc(C(=O)N=C4NCCN4)cc3C3CC3)c2Cl)CC1 [Compound 136, 3-chloro-2-[(2-cyclopropyl-6-fluoro-4-{[imidazolidin-2-ylidene]carbamoyl}phenyl)amino]-N-(1-methylcyclopropyl)pyridine-4-carboxamide] | 32 |  |
| CC1(NC(=O)c2cccc(Nc3ccc(C(=O)N=C4NCCN4)cc3C3CCCO3)c2Cl)CC1 (stereo not drawn) [Compound 137, 4-({2-chloro-3-[(1-methylcyclopropyl)carbamoyl]phenyl}amino)-N-[imidazolidin-2-ylidene]-3-(oxolan-2-yl)benzamide] | 204 |  |
| CC(C)NC(=O)c1cc(F)cc(Nc2ccc(C(=O)N=C3NCCN3)cc2C2CC2)c1F [Compound 138, 3-[(2-cyclopropyl-4-{[imidazolidin-2-ylidene]carbamoyl}phenyl)amino]-2,5-difluoro-N-(propan-2-yl)benzamide] | 233 |  |
| CC1(NC(=O)c2cc(F)cc(Nc3ccc(C(=O)N=C4NCCN4)cc3C3CC3)c2F)CC1 [Compound 139, 3-[(2-cyclopropyl-4-{[imidazolidin-2-ylidene]carbamoyl}phenyl)amino]-2,5-difluoro-N-(1-methylcyclopropyl)benzamide] | 152 |  |
| CC1(NC(=O)c2cccc(Nc3ccc(C(=O)N=C4NCCN4)cc3C3CCCO3)c2)CC1 (stereo not drawn) [Compound 140, N-[imidazolidin-2-ylidene]-4-({3-[(1-methylcyclopropyl)carbamoyl]phenyl}amino)-3-(oxolan-2-yl)benzamide] | 227 |  |
| N#CC1(C(=O)Nc2cccc(Nc3ccc(C(=O)N=C4NCCN4)cc3C3CC3)c2)CC1 [Compound 141, 4-{[3-(1-cyanocyclopropaneamido)phenyl]amino}-3-cyclopropyl-N-[imidazolidin-2-ylidene]benzamide] | 150 |  |
| O=C(N=C1NCCN1)c1cc(F)c(Nc2cccc(C(=O)N3CCOCC3C(F)(F)F)c2)c(C2CC2)c1 (stereo not drawn) [Compound 142, 3-cyclopropyl-5-fluoro-N-[imidazolidin-2-ylidene]-4-({3-[3-(trifluoromethyl)morpholine-4-carbonyl]phenyl}amino)benzamide] | 41.4 |  |
| CC1(NC(=O)c2cccc(Nc3c(F)cc(C(=O)N=C4NCCN4)cc3C3CC3)c2F)CC1 [Compound 143, 3-cyclopropyl-5-fluoro-4-({2-fluoro-3-[(1-methylcyclopropyl)carbamoyl]phenyl}amino)-N-[imidazolidin-2-ylidene]benzamide] | 59.7 |  |
| O=C(N=C1NCCN1)c1cc(F)c(Nc2cccc(C(=O)N3CCOC(C(F)(F)F)C3)c2)c(C2CC2)c1 (stereo not drawn) [Compound 144, 3-cyclopropyl-5-fluoro-N-[imidazolidin-2-ylidene]-4-({3-[2-(trifluoromethyl)morpholine-4-carbonyl]phenyl}amino)benzamide] | 48.1 |  |
| O=C(N=C1NCCN1)c1cc(F)c(Nc2cccc(C(=O)N3CCOCC3)c2)c(C2CCCO2)c1 (stereo not drawn) [Compound 145, 3-fluoro-N-[imidazolidin-2-ylidene]-4-{[3-(morpholine-4-carbonyl)phenyl]amino}-5-(oxolan-2-yl)benzamide] | 475 |  |
| CC1(NC(=O)c2cccc(Nc3ncc(C(=O)N=C4NCCN4)cc3C3CC3)c2Cl)CC1 [Compound 146, 6-({2-chloro-3-[(1-methylcyclopropyl)carbamoyl]phenyl}amino)-5-cyclopropyl-N-[imidazolidin-2-ylidene]pyridine-3-carboxamide] | 253 |  |
| CC1(NC(=O)c2ccnc(Nc3c(F)cc(C(=O)N=C4NCCN4)cc3C3CC3)c2F)CC1 [Compound 147, 2-[(2-cyclopropyl-6-fluoro-4-{[imidazolidin-2-ylidene]carbamoyl}phenyl)amino]-3-fluoro-N-(1-methylcyclopropyl)pyridine-4-carboxamide] | 99.4 |  |
| CC(C)NC(=O)c1cc(F)cc(Nc2ccc(C(=O)N=C3NCCN3)cc2C2CC2)c1C1CC1 [Compound 148, 2-cyclopropyl-3-[(2-cyclopropyl-4-{[imidazolidin-2-ylidene]carbamoyl}phenyl)amino]-5-fluoro-N-(propan-2-yl)benzamide] | 347 |  |
| CC1(NC(=O)c2cccc(Nc3c(C#N)cc(C(=O)N=C4NCCN4)cc3C3CC3)c2)CC1 [Compound 149, 3-cyano-5-cyclopropyl-N-[imidazolidin-2-ylidene]-4-({3-[(1-methylcyclopropyl)carbamoyl]phenyl}amino)benzamide] | 45.8 |  |
| CC1(NC(=O)c2nccc(Nc3ccc(C(=O)N=C4NCCN4)cc3C3CC3)c2Cl)CC1 [Compound 150, 3-chloro-4-[(2-cyclopropyl-4-{[imidazolidin-2-ylidene]carbamoyl}phenyl)amino]-N-(1-methylcyclopropyl)pyridine-2-carboxamide] | 263 |  |
| N#CC1(NC(=O)c2ccnc(Nc3c(F)cc(C(=O)N=C4NCCN4)cc3C3CC3)c2F)CC1 [Compound 152, N-(1-cyanocyclopropyl)-2-[(2-cyclopropyl-6-fluoro-4-{[imidazolidin-2-ylidene]carbamoyl}phenyl)amino]-3-fluoropyridine-4-carboxamide] | 1140 |  |
| O=C(N=C1NCCN1)c1cc(F)c(Nc2nccc(C(=O)N3CCOCC3)c2Cl)c(C2CC2)c1 [Compound 153, 4-{[3-chloro-4-(morpholine-4-carbonyl)pyridin-2-yl]amino}-3-cyclopropyl-5-fluoro-N-[imidazolidin-2-ylidene]benzamide] | 31.6 |  |
| O=C(N=C1NCCN1)c1cc(F)c(Nc2nccc(C(=O)N3C[C@H]4C[C@@H]3CO4)c2Cl)c(C2CC2)c1 [Compound 154, 4-({3-chloro-4-[(1R,4R)-2-oxa-5-azabicyclo[2.2.1]heptane-5-carbonyl]pyridin-2-yl}amino)-3-cyclopropyl-5-fluoro-N-[imidazolidin-2-ylidene]benzamide] | 69.8 |  |
| O=C(N=C1NCCN1)c1cc(F)c(Nc2nccc(C(=O)N3C[C@@H]4C[C@H]3CO4)c2Cl)c(C2CC2)c1 [Compound 155, 4-({3-chloro-4-[(1S,4S)-2-oxa-5-azabicyclo[2.2.1]heptane-5-carbonyl]pyridin-2-yl}amino)-3-cyclopropyl-5-fluoro-N-[imidazolidin-2-ylidene]benzamide] | 51.8 |  |
| O=C(N=C1NCCN1)c1cc(F)c(Nc2nccc(C(=O)N3CCOCC3)c2F)c(C2CC2)c1 [Compound 156, 3-cyclopropyl-5-fluoro-4-{[3-fluoro-4-(morpholine-4-carbonyl)pyridin-2-yl]amino}-N-[imidazolidin-2-ylidene]benzamide] | 40.7 |  |
| CC1(NC(=O)c2nccc(Nc3c(F)cc(C(=O)N=C4NCCN4)cc3C3CC3)c2Cl)CC1 [Compound 157, 3-chloro-4-[(2-cyclopropyl-6-fluoro-4-{[imidazolidin-2-ylidene]carbamoyl}phenyl)amino]-N-(1-methylcyclopropyl)pyridine-2-carboxamide] | 26.6 |  |
| O=C(N=C1NCCN1)c1cc(F)c(Nc2cccc(C(=O)N3CCOCC3)c2F)c(C2CC2)c1 [Compound 158, 3-cyclopropyl-5-fluoro-4-{[2-fluoro-3-(morpholine-4-carbonyl)phenyl]amino}-N—[imidazolidin-2-ylidene]benzamide] | 6.8 |  |
| O=C(N=C1NCCN1)c1cc(F)c(Nc2nccc(C(=O)N3C[C@@H]4C[C@H]3CO4)c2F)c(C2CC2)c1 [Compound 159, 3-cyclopropyl-5-fluoro-4-({3-fluoro-4-[(1S,4S)-2-oxa-5-azabicyclo[2.2.1]heptane-5-carbonyl]pyridin-2-yl}amino)-N—[imidazolidin-2-ylidene]benzamide] | 225 |  |
| CC(C)=CCn1nnc(-c2cccc(Nc3ccc(C(=O)/N=C4\NCCN4C)cc3C3CC3)c2)n1 [Compound 160, 3-cyclopropyl-4-({3-[2-(3-methylbut-2-en-1-yl)-2H-1,2,3,4-tetrazol-5-yl]phenyl}amino)-N-[1-methylimidazolidin-2-ylidene]benzamide] | 545 |  |
| CC1(C(=O)Nc2cccc(Nc3ccc(C(=O)N=C4NCCN4)cc3C3CC3)c2)COC1 [Compound 161, N-{3-[(2-cyclopropyl-4-{[imidazolidin-2-ylidene]carbamoyl}phenyl)amino]phenyl}-3-methyloxetane-3-carboxamide] | 690 |  |
| CC1(C(=O)Nc2cccc(Nc3c(F)cc(C(=O)N=C4NCCN4)cc3C3CC3)c2)COC1 [Compound 163, N-{3-[(2-cyclopropyl-6-fluoro-4-{[imidazolidin-2-ylidene]carbamoyl}phenyl)amino]phenyl}-3-methyloxetane-3-carboxamide] | 35 |  |
| O=C(N=C1NCCN1)c1cc(F)c(Nc2nccc(C(=O)NC34CC(C3)C4)c2Cl)c(C2CC2)c1 [Compound 164] | 3.8 |  |
| CC1(NC(=O)c2cccc(Nc3ccc(C(=O)N=C4NCCN4)cc3C3CC3)c2Cl)CC1 [Compound 167, 4-({2-chloro-3-[(1-methylcyclopropyl)carbamoyl]phenyl}amino)-3-cyclopropyl-N-[imidazolidin-2-ylidene]benzamide] | 17.8 |  |
| O=C(N=C1NCCN1)c1cc(F)c(Nc2cccc(C3=NCCN3)c2)c(C2CC2)c1 [Compound 169, 3-cyclopropyl-4-{[3-(4,5-dihydro-1H-imidazol-2-yl)phenyl]amino}-5-fluoro-N-(imidazolidin-2-ylidene)benzamide] |  | 13.6 |
